Values belong to the molecule of their own block, whether it stands above or below them.
How the values were obtained:
pithed rats = assay: Anti-hypertensive activity in pithed rats (blood pressure elevated by angiotensin II infusion); format: in vivo, rat; conditions: for bradycardia / diastolic blood pressure, elevated by an infusion of angiotensin II: i.v., result in words
[1] = target: T1, K^+ -depolarized taenia preparations from the guinea pig caecum (Cavia porcellus, UniProt O35505); assay: Calcium antagonism in K+-depolarized taenia preparations (displacement of Ca++ concentration-response curves); format: cell-based; conditions: for Kb: calculated, against Ca++, read-out: pA2 (converted)
T1 construct: taenia preparations from the guinea pig caecum; from tissue; host or cells: guinea pig caecum, taenia (smooth muscle)
T1 sequence (O35505 whole entry): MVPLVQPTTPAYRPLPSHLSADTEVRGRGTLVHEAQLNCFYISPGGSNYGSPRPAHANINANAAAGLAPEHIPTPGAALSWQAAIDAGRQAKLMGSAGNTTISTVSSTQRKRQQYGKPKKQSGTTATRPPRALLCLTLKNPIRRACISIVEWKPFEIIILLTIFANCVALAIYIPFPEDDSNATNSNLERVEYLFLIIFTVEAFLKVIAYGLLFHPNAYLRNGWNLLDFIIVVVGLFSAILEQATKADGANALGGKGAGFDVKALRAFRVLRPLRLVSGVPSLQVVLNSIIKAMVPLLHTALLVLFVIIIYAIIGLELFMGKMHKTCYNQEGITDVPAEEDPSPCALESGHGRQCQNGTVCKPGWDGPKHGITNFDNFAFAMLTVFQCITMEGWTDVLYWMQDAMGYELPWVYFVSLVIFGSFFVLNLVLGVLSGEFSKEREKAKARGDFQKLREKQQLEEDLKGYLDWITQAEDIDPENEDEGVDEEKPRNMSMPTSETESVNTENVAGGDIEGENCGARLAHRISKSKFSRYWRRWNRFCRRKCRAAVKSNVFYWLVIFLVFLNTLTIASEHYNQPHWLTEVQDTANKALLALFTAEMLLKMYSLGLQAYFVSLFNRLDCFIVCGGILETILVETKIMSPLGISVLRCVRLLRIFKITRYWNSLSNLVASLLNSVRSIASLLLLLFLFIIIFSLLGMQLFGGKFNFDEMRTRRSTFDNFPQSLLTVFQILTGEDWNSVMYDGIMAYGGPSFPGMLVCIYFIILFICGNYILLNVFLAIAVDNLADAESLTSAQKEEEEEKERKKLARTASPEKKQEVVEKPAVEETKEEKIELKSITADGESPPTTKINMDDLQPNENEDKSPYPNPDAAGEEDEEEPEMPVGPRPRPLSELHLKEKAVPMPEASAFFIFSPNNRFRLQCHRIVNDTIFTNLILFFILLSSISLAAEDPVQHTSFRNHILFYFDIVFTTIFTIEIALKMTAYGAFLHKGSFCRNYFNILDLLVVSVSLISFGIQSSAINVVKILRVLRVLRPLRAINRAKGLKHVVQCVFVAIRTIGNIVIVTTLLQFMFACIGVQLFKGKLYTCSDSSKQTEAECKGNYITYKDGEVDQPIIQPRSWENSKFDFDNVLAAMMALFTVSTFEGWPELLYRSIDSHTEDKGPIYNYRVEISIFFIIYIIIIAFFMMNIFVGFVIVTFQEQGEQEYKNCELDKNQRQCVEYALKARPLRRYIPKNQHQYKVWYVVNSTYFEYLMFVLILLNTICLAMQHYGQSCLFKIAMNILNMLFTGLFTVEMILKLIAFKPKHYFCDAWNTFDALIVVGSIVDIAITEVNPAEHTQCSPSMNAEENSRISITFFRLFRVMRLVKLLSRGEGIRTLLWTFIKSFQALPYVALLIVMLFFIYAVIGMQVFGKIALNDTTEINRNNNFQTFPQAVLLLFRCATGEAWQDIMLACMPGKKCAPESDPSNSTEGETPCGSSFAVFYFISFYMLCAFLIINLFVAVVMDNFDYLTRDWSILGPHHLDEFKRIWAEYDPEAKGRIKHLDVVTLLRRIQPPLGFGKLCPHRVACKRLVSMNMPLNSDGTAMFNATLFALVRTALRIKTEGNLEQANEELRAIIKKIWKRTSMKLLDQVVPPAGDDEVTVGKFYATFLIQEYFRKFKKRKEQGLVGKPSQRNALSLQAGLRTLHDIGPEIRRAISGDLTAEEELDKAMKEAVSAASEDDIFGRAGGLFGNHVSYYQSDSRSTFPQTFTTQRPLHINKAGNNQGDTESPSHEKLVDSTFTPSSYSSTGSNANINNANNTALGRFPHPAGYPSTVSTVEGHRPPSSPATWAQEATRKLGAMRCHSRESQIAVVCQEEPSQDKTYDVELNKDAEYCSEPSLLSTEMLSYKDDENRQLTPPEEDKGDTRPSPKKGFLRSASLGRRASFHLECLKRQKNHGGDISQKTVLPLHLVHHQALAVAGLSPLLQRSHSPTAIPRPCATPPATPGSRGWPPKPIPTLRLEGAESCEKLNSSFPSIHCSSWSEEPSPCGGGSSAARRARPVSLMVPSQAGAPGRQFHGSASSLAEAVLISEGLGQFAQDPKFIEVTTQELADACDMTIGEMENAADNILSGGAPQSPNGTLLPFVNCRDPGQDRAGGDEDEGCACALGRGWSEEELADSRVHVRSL
Text: Pharmacol., 38, 234 (1982). […] Pharmacol., 318, 234 (1982)].

[2] = tested on: K^+ -depolarized taenia preparations from guinea pig caecum; assay: Inhibition of 45Ca++ uptake in K+-depolarized taenia preparations; format: cell-based; conditions: 0.1 and 1 μM; 20 minutes incubation
Experimental: In this procedure, strips of taenia are incubated in Ca^++ -free buffer (composition, mM: NaCl, 97; KCl, 40; glucose, 5.5, HEPES buffer, 10; pH 7.0) at 35° C. and gassed with oxygen. The preparations thus prepared are then incubated with the test compound for 20 minutes after which ^45 Ca^++ /Ca^++ is added (1 mM for 10 minutes). Extracellular Ca^++ is displaced with lanthanum (50 mM) at 0°-4° C.

[3] = tested on: pentobarbitone-anesthetized rats; assay: Anti-hypertensive effect in pentobarbitone-anesthetized rats; format: in vivo, rat; conditions: for Change in diastolic blood pressure / Change in heart rate: pentobarbitone-anesthetized rats
Experimental: In this test, rats, anesthetized with a 45 to 60 mg/kg dose (i.p.) of sodium pentabarbitone, receive the test compound by injection by means of an indwelling cannula in the femoral vein. Diastolic blood pressure is measured by an indwelling catheter in the femoral artery. Heart rate is also measured.

[4] = tested on: conscious spontaneously hypertensive rats (stroke prone strain); assay: Anti-hypertensive effect in conscious spontaneously hypertensive rats (stroke prone strain); format: in vivo, rat
Experimental: In this test, the test compound is injected in an indwelling cannula in the femoral vein and blood pressure is measured by an indwelling catheter in the femoral artery. Heart rate is also measured.

Kb [1]: 1.78 nM
Compound: COC(=O)C1=C(C)NC(C)=C(C(=O)c2ccco2)C1c1ccccc1[N+](=O)[O-] (stereo not drawn) [Compound A, 3-(2-furoyl)-5-methoxycarbonyl-2,6-dimethyl-4-(2-nitrophenyl)-1,4-dihydropyridine]
Change in diastolic blood pressure (pithed rats; 3 nmol/kg i.v.): 82.2 ± 5.3 % control
Change in heart rate (pithed rats; 3 nmol/kg i.v.): 98.1 ± 0.9 % control
Change in diastolic blood pressure (pithed rats; 10 nmol/kg i.v.): 72.3 ± 4.9 % control
Change in heart rate (pithed rats; 10 nmol/kg i.v.): 93.7 ± 1.7 % control
Change in diastolic blood pressure (pithed rats; 30 nmol/kg i.v.): 62.4 ± 3.5 % control
Change in heart rate (pithed rats; 30 nmol/kg i.v.): 90.9 ± 2.5 % control
Change in diastolic blood pressure (pithed rats; 100 nmol/kg i.v.): 52.0 ± 3.8 % control
Change in heart rate (pithed rats; 100 nmol/kg i.v.): 81.1 ± 3.3 % control
Change in diastolic blood pressure (pithed rats; 300 nmol/kg i.v.): 45.0 ± 1.6 % control
Change in heart rate (pithed rats; 300 nmol/kg i.v.): 74.2 ± 3.4 % control
Change in diastolic blood pressure (pithed rats; 1000 nmol/kg i.v.): 36.4 ± 1.8 % control
Change in heart rate (pithed rats; 1000 nmol/kg i.v.): 67.9 ± 3.4 % control
Change in diastolic blood pressure (pithed rats; 3000 nmol/kg i.v.): 32.9 ± 1.8 % control
Change in heart rate (pithed rats; 3000 nmol/kg i.v.): 64.3 ± 3.4 % control
bradycardia (pithed rats): dose-dependent bradycardia
diastolic blood pressure, elevated by an infusion of angiotensin II (pithed rats): significantly reduced
displacement of concentration-response curves to Ca++ [1]: caused a concentration-dependent displacement to the right
uptake of 45Ca++ into the tissue [2]: reduced uptake
blood pressure in anesthetized rats ([3]; anesthetized rats, i.v., result in words): reduced blood pressure in anesthetized rats in a dose-dependent manner
Change in diastolic blood pressure ([3]; 10 nmol/kg i.v.): 86.0 ± 3.3 % control
Change in heart rate ([3]; 10 nmol/kg i.v.): 103.5 ± 0.9 % control
Change in diastolic blood pressure ([3]; 30 nmol/kg i.v.): 80.2 ± 3.2 % control
Change in heart rate ([3]; 30 nmol/kg i.v.): 106.2 ± 2.0 % control
Change in diastolic blood pressure ([3]; 100 nmol/kg i.v.): 55.0 ± 2.8 % control
Change in heart rate ([3]; 100 nmol/kg i.v.): 107.1 ± 3.6 % control
Change in diastolic blood pressure ([3]; 300 nmol/kg i.v.): 54.6 ± 1.9 % control
Change in heart rate ([3]; 300 nmol/kg i.v.): 106.7 ± 3.1 % control
Change in diastolic blood pressure ([3]; 1000 nmol/kg i.v.): 46.7 ± 1.6 % control
Change in heart rate ([3]; 1000 nmol/kg i.v.): 104.0 ± 1.8 % control
Change in diastolic blood pressure ([3]; 3000 nmol/kg i.v.): 46.6 ± 1.6 % control
Change in heart rate ([3]; 3000 nmol/kg i.v.): 102.2 ± 2.2 % control
Change in diastolic blood pressure ([3]; 10000 nmol/kg i.v.): 32.4 ± 2.0 % control
Change in heart rate ([3]; 10000 nmol/kg i.v.): 99.9 ± 3.4 % control
Fall in mean blood pressure ([4]; 100 nmol/kg i.v.): 4.5 ± 1.5 mm Hg
Increase in heart rate ([4]; 100 nmol/kg i.v.): 20.0 ± 3.2 beats/min
Fall in mean blood pressure ([4]; 300 nmol/kg i.v.): 20.5 ± 1.5 mm Hg
Increase in heart rate ([4]; 300 nmol/kg i.v.): 70.0 ± 4.2 beats/min
Fall in mean blood pressure ([4]; 1000 nmol/kg i.v.): 42.5 ± 1.8 mm Hg
Increase in heart rate ([4]; 1000 nmol/kg i.v.): 118.0 ± 16.3 beats/min
Fall in mean blood pressure ([4]; 3000 nmol/kg i.v.): 56.6 ± 1.4 mm Hg
Increase in heart rate ([4]; 3000 nmol/kg i.v.): 136.3 ± 11.1 beats/min
blood pressure ([4]; i.v., result in words): significantly reduced blood pressure in a dose-dependent manner
reflex tachycardia ([4]; i.v., result in words): produced reflex tachycardia

Kb [1]: 4.57 nM
Compound: CCOC(=O)C1=C(C)NC(C)=C(C(=O)c2ccco2)C1c1ccccc1[N+](=O)[O-] (stereo not drawn) [Compound B, 3-(2-furoyl)-5-ethoxycarbonyl-2,6-dimethyl-4-(2-nitrophenyl)-1,4-dihydropyridine]
Change in diastolic blood pressure (pithed rats; 10 nmol/kg i.v.): 80.6 ± 2.8 % control
Change in heart rate (pithed rats; 10 nmol/kg i.v.): 94.1 ± 0.5 % control
Change in diastolic blood pressure (pithed rats; 30 nmol/kg i.v.): 67.9 ± 3.0 % control
Change in heart rate (pithed rats; 30 nmol/kg i.v.): 90.4 ± 1.3 % control
Change in diastolic blood pressure (pithed rats; 100 nmol/kg i.v.): 47.7 ± 2.4 % control
Change in heart rate (pithed rats; 100 nmol/kg i.v.): 85.7 ± 1.5 % control
Change in diastolic blood pressure (pithed rats; 300 nmol/kg i.v.): 45.6 ± 3.9 % control
Change in heart rate (pithed rats; 300 nmol/kg i.v.): 84.1 ± 3.4 % control
Change in diastolic blood pressure (pithed rats; 1000 nmol/kg i.v.): 39.1 ± 2.1 % control
Change in heart rate (pithed rats; 1000 nmol/kg i.v.): 76.6 ± 3.4 % control
Change in diastolic blood pressure (pithed rats; 3000 nmol/kg i.v.): 37.1 ± 0.8 % control
Change in heart rate (pithed rats; 3000 nmol/kg i.v.): 72.2 ± 3.4 % control
bradycardia (pithed rats): dose-dependent bradycardia
diastolic blood pressure, elevated by an infusion of angiotensin II (pithed rats): significantly reduced
displacement of concentration-response curves to Ca++ [1]: caused a concentration-dependent displacement to the right
